Where no end group is shown, it is not given here.
What was measured:
[1] = lytic capacity / toxicity of mastoparan-based peptides
[2] = target: T1, Go (Bos taurus, UniProt P08239); assay: steady state GTPase activity of Go in phospholipid vesicles; assay type: biochemical, bovine
T1 construct: proteins were extracted from bovine cerebral cortical membranes; from tissue; host or cells: bovine brain (cerebral cortical membranes)

[3] = target: Gs (Homo sapiens, UniProt P63092); assay: steady state GTPase activity of Gs; assay type: biochemical; settings: Table IV; for EC50: read-out: Gs af. (apparent affinity, estimated by EC50 of GTPase activity)
Procedure: Methods for the assay of steady state GTP hydrolysis and GTPγS binding have been described previously by Higashijima, 1987, and Ferguson, 1986, and incorporated herein by reference. Unless noted otherwise, assays of steady state GTP hydrolysis and of the binding and dissociation of guanine nucleotides were carried out in the buffer described previously, but without detergent and with 1.1 mM MgSO4 and the nucleotide specified in the text. When necessary, the concentration of free Mg^2+ was adjusted using EDTA buffers as described previously by Higashijima, 1987, and incorporated herein by reference.
The data set forth in the following tables represent data generated by the inventors employing the steady state GTP hydrolysis, expressed as molar turnover numbers, are described herein under the "Assay" section of the Experimental Procedures in Example 1. The data has been classified according to the criteria outlined below and the effects of each peptide and modified variant on Go, Gi, and Gs have been tabulated. Table III below sets forth data generated for various mastoparan analogues designed by the inventors, in comparison with the various naturally-occurring mastoparans (e.g., MP, MP-A and MP-T). Table IV sets forth similar data generated for various receptor-based peptides designed by the inventors based on a consideration of various G-protein linked receptors.
Apparent affinity (af.) and apparent efficacy (ef.) were estimated by EC50 and maximum turnover number of GTPase activity.

[4] = system: Gi; assay: release of [α-32P]GDP from Gi (GDP exchange); assay type: biochemical, rabbit
Procedure: FIG. 1. Stimulation of GDP/GTP exchange by analogs of MP. The release of [α-^32 P]GDP from Gi was measured at 30° C. in the presence of the concentrations of several different MP analogs whose structures are listed in Table I: O, Mas7; Δ, Mas8; .tangle-solidup.Mas9; .quadrature., Mas19; .oval-solid., MP; .box-solid., MP-X; .gradient., MAS14; .tangle-soliddn., Mas6. First order dissociation rate constants (kdiss) were determined from duplicate four-point time courses as described under "Experimental Procedures."
Purification of αo and βγ was completed by chromatography on DEAE-Sephacel that was eluted with a gradient of 0-250 mM NaCl in the presence of 0.6% Lubrol and AMF. AMF was removed by chromatography on hydroxyapatite and Sephadex G-25 as described by Sternweis, et al., 1981, incorporated herein by reference. Gi was purified as the αβγ trimer from rabbit liver as reported by Bokoch, et al., 1984, incorporated herein by reference. The Gi used in this study could be recognized on a Western blot by anti-Gi -1 and anti-Gi -3 antibodies but not by anti-Gi -2 antibody, as documented by Mumby, et al., 1983, incorporated herein by reference. Purified recombinant αi,1 was synthesized in E. coli prepared to the specifications of Linder, incorporated herein by reference. During purification, G protein α subunits were assayed by [^35 S] GTPγ S binding according to the method of Higashijima, 1987, incorporated herein by reference). By subunits were assayed according to their ability to deactivate Gs, as detailed by Northup, 1983, incorporated herein by reference.
G proteins were reconstituted into phospholipid vesicles composed of dioleoyl-PC/bovine brain PS/1-palmitoyl,2-oleoyl-PE (3:4:3) as reported previously by Higashijima et al., 1988, incorporated herein by reference.
To measure the MP-catalyzed dissociation of [α-^32 P]GDP or [^35 S]-GTPγS, labeled nucleotide was first bound to G protein (approximately […] in 50 μl) by incubation of the Lubrol-solubilized G protein with a molar excess of nucleotide in assay buffer that contained 10 mM MgSO4 and 0.1% Lubrol. Incubation was for 20 min at 20° C. (for Go) or for 30 min at 30° C. (for Gi), In the case of [α-^32 P]GDP, EDTA was then added to 12 mM. […] Bound nucleotide was determined by binding to nitrocellulose filters as described (Ferguson, 1986), and incorporated herein by reference. […] Data were analyzed using a nonlinear least squares fitting program.

[5] = system: Gi; assay: steady state GTPase activity of Gi in phospholipid vesicles; assay type: biochemical, rabbit;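 also: Steady-state GTP hydrolysis by Gi measured in a detergent-free buffer containing 1.1 mM MgSO4 plus the specified guanine nucleotide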
Procedure: The concentration of free Mg^2+ in assay medium that contains 5 mM EDTA and no added Mg^2+ is estimated to be 0.1-0.2 nM according to Brandt et al., 1988 and 1983.

[6] = critical micelle concentration; assay type: physicochemical
Description: MP was synthesized and purified as described by Saito and his colleagues (Chem. Pharm. Bull., 32:2187-2193, 1984, incorporated herein by reference). The MP analogs listed in Table I were synthesized by standard solid phase methods and purified by C-4 HPLC using an acetonitrile gradient in 0.1% trifluoroacetic acid. […] The identity of the peptides was monitored by 400-MHz or 250-Mhz ^1 H NMR spectroscopy for MP and MP-X and by mass spectroscopy for the other analogs. […] BAC was purchased from Sigma, and other alkylammonium compounds were from Aldrich. The critical micelle concentration of BAC was measured in the buffer used for GTPase assays (see below) using 1,6-diphenyl-1,3,5-hexatriene according to the method of Schrock and Gennis, (J. Biol. Chem, 252:5990-5995, 1977, incorporated herein by reference). The critical micelle concentration was approximately 20 μM.

[7] = target: T1, Go; assay: rate of hydrolysis of protein-bound [γ-32P]GTP; assay type: biochemical, bovine
Procedure: The rate of hydrolysis of protein-bound [γ^32 P]GTP was measured essentially as described previously (Higashijima, 1987) at 20° C. in assay medium that contained 2 ppm Lubrol 12A9. Go (10 nM) was incubated in assay medium for 16 min with 100 nM [γ-^32 P]GTP to allow nucleotide to bind. Hydrolysis was initiated by the addition of 1.3 mM MgSO4. Excess unlabeled GTP was also added such that only a single turnover was measured. The production of [^32 P]Pi was measured as described by Higashijima, 1987.

[8] = system: muscarinic cholinergic receptor; assay type: binding, porcine
[9] = circular dichroism, fractional helical content; assay type: physicochemical; settings: 20 μM peptide, pH 7.5, 25° C.
Procedure: CD spectra of peptides were measured using an Aviv model 60DS spectrometer at 25° C. in 1-mm pathlength cells. Spectra were scanned at 1 nm intervals for 3 s, and three scans were averaged. Peptides were dissolved at 20 μM in 5 mM Tris-Cl, pH 7.5, in the presence or absence of sonicated 1 mM 1-palmitoyl,2-oleoylphosphatidylcholine. Fractional helical content for each peptide was calculated according to the assumption that, for 100% helix and 14 peptide bonds, θ222 =36,000 (1-2.6/14).
Fractional helical contents of some of the peptides

T1 sequence (P08239 2-354 limits assumed): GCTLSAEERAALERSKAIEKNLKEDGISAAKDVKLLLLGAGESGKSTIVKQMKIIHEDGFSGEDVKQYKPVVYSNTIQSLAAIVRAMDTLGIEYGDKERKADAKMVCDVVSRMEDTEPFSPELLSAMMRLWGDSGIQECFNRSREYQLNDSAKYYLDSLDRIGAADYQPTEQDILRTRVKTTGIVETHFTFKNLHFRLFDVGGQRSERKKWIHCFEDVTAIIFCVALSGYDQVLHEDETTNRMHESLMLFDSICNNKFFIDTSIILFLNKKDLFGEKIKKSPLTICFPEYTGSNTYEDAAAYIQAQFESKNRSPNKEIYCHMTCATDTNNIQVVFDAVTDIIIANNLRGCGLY
T1 sequence (P62871 2-340 partner limits assumed): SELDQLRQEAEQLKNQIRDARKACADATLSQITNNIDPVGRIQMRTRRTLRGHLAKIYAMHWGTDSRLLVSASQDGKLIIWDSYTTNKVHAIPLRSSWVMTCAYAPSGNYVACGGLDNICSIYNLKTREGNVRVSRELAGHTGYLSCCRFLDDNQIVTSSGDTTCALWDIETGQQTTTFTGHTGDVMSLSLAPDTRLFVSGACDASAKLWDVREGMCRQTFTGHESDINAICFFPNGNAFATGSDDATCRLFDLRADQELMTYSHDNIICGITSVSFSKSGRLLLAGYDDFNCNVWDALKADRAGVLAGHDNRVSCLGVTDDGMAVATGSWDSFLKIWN
T1 sequence (P63212 2-68 partner limits assumed): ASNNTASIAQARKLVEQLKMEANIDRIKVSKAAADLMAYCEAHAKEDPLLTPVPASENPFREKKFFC
Sequence of Gs (P63092 whole entry): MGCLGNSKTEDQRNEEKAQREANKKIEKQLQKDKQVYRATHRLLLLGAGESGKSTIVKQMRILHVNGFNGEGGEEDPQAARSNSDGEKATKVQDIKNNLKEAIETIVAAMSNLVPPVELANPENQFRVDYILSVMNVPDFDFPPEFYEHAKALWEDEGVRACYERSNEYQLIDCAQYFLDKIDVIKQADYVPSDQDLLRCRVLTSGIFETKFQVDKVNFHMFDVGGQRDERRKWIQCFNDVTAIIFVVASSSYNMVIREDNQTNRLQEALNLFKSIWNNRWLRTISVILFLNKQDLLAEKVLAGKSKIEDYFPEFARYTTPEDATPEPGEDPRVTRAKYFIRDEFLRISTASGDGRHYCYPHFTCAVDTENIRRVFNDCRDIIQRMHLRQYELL

In the case of INLKALAALKKALL-NH2 [ER25], the “toxicity (in words)” value [1] is reported as “least toxic”, the EC50 [2] is reported as 10 to 30 µM and the EC50 [3] is reported as 10 to 30 µM.

In the case of CCCCCCCCCCCCC[N+](C)(C)Cc1ccccc1 [BAC (C-12), benzalkonium chloride], the “Turnover number Go 10 μg/ml” value ([2]; 10 μg/ml amine, 15 min at 20° C., PE/PC/PS vesicles) is reported as 0.33 min⁻¹, the “Turnover number Go 100 μg/ml” value ([2]; 100 μg/ml amine, 15 min at 20° C.) is reported as 0.8 min⁻¹ and the “maximal stimulation of Go” value ([2]; at about 30 μg/ml (~0.1 mM) BAC, FIG. 5) is reported as 20 fold. For the same compound, the “BAC concentration range in which the EC50 for Mas7 increased sharply” value ([4]; Gi, FIG. 4B) was 1 to 3 µg/mL, the “inhibition of Mas7-stimulated GDP exchange on Gi” value ([4]; intermediate concentrations of Mas7) was at most 60% and the “effect on basal GDP exchange rate of Gi” value ([4]; no Mas7) was “no detectable inhibition”. The “effect on stimulation of Gi GTPase activity by Mas7 and MP” value ([5]; 3 μg/ml BAC, 10 μM Mas7 (FIG. 3)) was “antagonized”, the “Turnover number Gi 10 μg/ml” value ([5]; 10 μg/ml amine, 30 min at 30° C.) was 0.08 min⁻¹ and the “Turnover number Gi 100 μg/ml” value ([5]; 100 μg/ml amine, 30 min at 30° C.) was 0.04 min⁻¹. The critical micelle concentration ([6]; as restated) was 20 µg/mL and the critical micelle concentration ([6]; buffer used for GTPase assays, 1,6-diphenyl-1,3,5-hexatriene) was “approximately 20 μM”.

With CC[C@H](C)[C@H](N)C(=O)N[C@@H](CC(N)=O)C(=O)N[C@@H](CC(C)C)C(=O)N[C@@H](CCCCN)C(=O)N[C@@H](C)C(=O)N[C@@H](CC(C)C)C(=O)N[C@@H](C)C(=O)N[C@@H](C)C(=O)N[C@@H](CC(C)C)C(=O)N[C@@H](C)C(=O)N[C@@H](CCCCN)C(=O)N[C@@H](CCCCN)C(=O)N[C@H](C(=O)N[C@@H](CC(C)C)C(N)=O)[C@@H](C)CC [MP] the “effect on rate of hydrolysis of bound GTP” value [7] was “did not alter”, the “effect on affinity of the receptor for the antagonist [3H]QNB” value [8] was “did not alter” and the “effect on the receptor's affinity for acetylcholine” value ([8]; 30 μM peptide, […]) was “decreased the receptor's affinity for acetylcholine”. The EC50 [2] was 3 to 10 µM, the “GTPase Go 10 μM” value ([2]; 10 μM peptide, 15 min at 20° C., PE/PC/PS vesicles) was 0.59 min⁻¹ and the “GTPase Go 100 μM” value ([2]; 100 μM peptide, 15 min at 20° C., PE/PC/PS vesicles) was 0.95 min⁻¹. For the same compound, the “Goo ef. (apparent efficacy, maximum turnover number of GTPase activity)” value ([2]; Table IV) was “E (Excellent (E): 30-10 fold)”, the “Gs ef. (apparent efficacy, maximum turnover number of GTPase activity)” value [3] was “F (Fair (F): 2-5 fold)” and the EC50 [3] was 3 to 10 µM. For the same compound, the “stimulation of Gi” value ([4]; GDP exchange assay, typical) was “about 15 fold”, the “% α Helix - PC” value ([9]; absence of 1 mM phospholipid) was 19% and the “% α Helix + PC” value ([9]; presence of 1 mM phospholipid) was 61%. For the same compound, the “GTPase Gi 10 μM” value ([5]; 10 μM peptide, 30 min at 30° C., PE/PC/PS vesicles) was 0.19 min⁻¹, the “GTPase Gi 100 μM” value ([5]; 100 μM peptide, 30 min at 30° C., PE/PC/PS vesicles) was 0.47 min⁻¹ and the “stimulation of Gi” value ([5]; GTPase assay, typical) was “about 15 fold”. The “G1 ef. (apparent efficacy, maximum turnover number of GTPase activity)” value ([5]; Table IV) was “E (Excellent (E): 30-10 fold)” and the EC50 ([5]; Table IV, read-out: G1 af. (apparent affinity, estimated by EC50 of GTPase activity)) was 10 to 30 µM.

— patent US5589568A (priority 1994, dated 1996)
